Assay results reported in ChEMBL document CHEMBL4480388, “Rad51/BRCA2 disruptors inhibit homologous recombination and synergize with olaparib in pancreatic cancer cells” (Eur J Med Chem, 2019).
Active and inactive are the calls of the source. No cut-off for these calls is given here.

How the values were obtained:
[1] = biological target: T1, DNA repair protein RAD51 homolog 1 (Homo sapiens, UniProt Q06609); assay: Displacement of N-terminal biotinylated-BRC4 from recombinant human Rad51 expressed in Escherichia coli by ELISA
T1 sequence (Q06609 whole entry): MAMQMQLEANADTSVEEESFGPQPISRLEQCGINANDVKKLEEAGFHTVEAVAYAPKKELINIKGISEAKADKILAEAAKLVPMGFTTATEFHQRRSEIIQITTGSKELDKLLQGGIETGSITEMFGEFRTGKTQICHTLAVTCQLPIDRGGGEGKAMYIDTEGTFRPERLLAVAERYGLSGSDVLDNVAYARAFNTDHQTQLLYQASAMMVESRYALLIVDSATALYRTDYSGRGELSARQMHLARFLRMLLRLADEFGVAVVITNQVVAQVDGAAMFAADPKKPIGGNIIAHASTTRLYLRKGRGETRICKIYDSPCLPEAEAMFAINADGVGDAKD

[2] = biological target: T2, DNA repair protein RAD51 homolog 1 (Homo sapiens) (UniProt Q06609); assay: Binding affinity to Rad51 in human BxPC3 cells assessed as reduction in protein-mediated homologous recombination at 40 uM measured after 16 hrs by reporter gene based PCR analysis relative to control; format: cell-based; design: scale not given: the % may be the effect or the level left
T2 sequence (whole entry): T1 sequence (Q06609 whole entry)

CAPAN-1 [3] = assay: Effect on homologous recombination in human Capan1 cells at 20 to 40 uM measured after 16 hrs by reporter gene based PCR analysis; format: functional, cell-based
BXPC-3 [4] = assay: Synergistic cytotoxicity against human BxPC3 cells assessed as reduction in cell viability at 40 uM measured after 72 hrs in presence of PARP inhibitor olaparib by crystal violet staining based assay; format: functional
CAPAN-1 [5] = assay: Synergistic cytotoxicity against human Capan1 cells assessed as reduction in cell viability at 40 uM measured after 72 hrs in presence of PARP inhibitor olaparib by crystal violet staining based assay; format: functional
[6] = biological target: T2, DNA repair protein RAD51 homolog 1 (Homo sapiens); assay: Binding affinity to Rad51 in human BxPC3 cells assessed as reduction in protein-mediated homologous recombination at 20 uM measured after 16 hrs by reporter gene based PCR analysis relative to control; format: cell-based; design: scale not given: the % may be the effect or the level left
CAPAN-1 [7] = assay: Effect on homologous recombination in human Capan1 cells at 10 to 20 uM measured after 16 hrs by reporter gene based PCR analysis; format: functional, cell-based
BXPC-3 [8] = assay: Synergistic cytotoxicity against human BxPC3 cells assessed as reduction in cell viability at 20 uM measured after 72 hrs in presence of PARP inhibitor olaparib by crystal violet staining based assay; format: functional
CAPAN-1 [9] = assay: Synergistic cytotoxicity against human Capan1 cells assessed as reduction in cell viability at 20 uM measured after 72 hrs in presence of PARP inhibitor olaparib by crystal violet staining based assay; format: functional
BXPC-3 [10] = assay: Synergistic cytotoxicity against human BxPC3 cells assessed as reduction in cell viability measured after 72 hrs in presence of PARP inhibitor olaparib by crystal violet staining based assay; format: functional
BXPC-3 [11] = assay: Synergistic cytotoxicity against human BxPC3 cells assessed as reduction in cell viability at 20 uM measured after 144 hrs in presence of PARP inhibitor olaparib by CellTox green dye based fluorescence assay; format: functional
BXPC-3 [12] = assay: Synergistic cytotoxicity against human BxPC3 cells assessed as combination index at 20 uM measured after 144 hrs in presence of PARP inhibitor olaparib by CellTox green dye based fluorescence assay; format: functional
BXPC-3 [13] = assay: Induction of DNA damage in human BxPC3 cells assessed as increase in gammaH2AX phosphorylation level at 20 uM measured after 144 hrs in presence of PARP inhibitor olaparib by Western blotting analysis relative to control; format: functional
BXPC-3 [14] = assay: Induction of DNA damage in human BxPC3 cells assessed as increase in gammaH2AX phosphorylation level at 20 uM measured after 144 hrs by Western blotting analysis; format: functional, cell-based
BXPC-3 [15] = assay: Induction of apoptosis in human BxPC3 cells assessed as increase in PUMA level at 20 uM measured after 144 hrs by Western blotting analysis; format: functional, cell-based
BXPC-3 [16] = assay: Induction of apoptosis in human BxPC3 cells assessed as increase in BAX level at 20 uM measured after 144 hrs by Western blotting analysis; format: functional, cell-based
BXPC-3 [17] = assay: Induction of apoptosis in human BxPC3 cells assessed as caspase-3 activation at 20 uM measured after 144 hrs by Western blotting analysis; format: functional, cell-based
[18] = biological target: T2, DNA repair protein RAD51 homolog 1 (Homo sapiens); assay: Binding affinity to Rad51 in human BxPC3 cells assessed as reduction in protein-mediated homologous recombination at 5 to 30 uM measured after 16 hrs by reporter gene based PCR analysis; format: cell-based
[19] = Solubility of the compound in RPMI 1640 medium; format: physicochemical

EC50 [1]	Compound	other results
Not Active	O=C(CSc1nnc(Cn2c(=O)sc3ccc(F)cc32)n1CCc1ccccc1)NC1CCCC1	
Not Active	O=C(CSc1nnc(Cn2c(=O)sc3ccccc32)n1CCc1ccccc1)N1CCOCC1	
	O=C(CSc1nnc(Cn2c(=O)oc3ccccc32)n1CCCc1ccccc1)NC1CCCC1	EC50 ([1]; read-out: EC50): 90 µM
Not Active	O=C(CSc1nnc(Cn2c(=O)sc3ccccc32)n1CCCc1ccncc1)NC1CCCC1	
	O=C(CSc1nnc(Cn2c(=O)sc3ccccc32)n1CCCc1ccccc1)NC1CC1	EC50 ([1]; read-out: EC50): 24 µM; Activity [2]: 24%; Activity (CAPAN-1 [3]): inactive; Activity (BXPC-3 [4]): inactive; Activity (CAPAN-1 [5]): inactive
Not Active	O=c1sc2ccccc2n1Cc1nnc(S)n1CCc1ccccc1	
Not Active	O=C(CSc1nnc(Cn2c(=O)sc3ccccc32)n1CCc1ccccc1F)NC1CCCC1	
Not Active	O=C(CSc1nnc(Cn2c(=O)sc3ccccc32)n1CCCc1cccnc1)NC1CCCC1	
	O=C(CSc1nnc(Cn2c(=O)sc3ccccc32)n1CCc1ccccc1)Nc1ccccc1	EC50 ([1]; read-out: EC50): 95 µM
Not Active	O=C(CSc1nnc(Cn2c(=O)sc3ccccc32)n1CCc1cccc(O)c1)NC1CCCC1	
Not Active	O=C(CSc1nnc(CN2CCSC2=O)n1CCCc1ccccc1)NC1CCCC1	
Not Active	O=C(CSc1nnc(Cn2c(=O)sc3ccccc32)n1CCc1ccccc1)NC1CCCCC1	
Not Active	COc1ccc2sc(=O)n(Cc3nnc(SCC(=O)NC4CCCC4)n3CCc3ccccc3)c2c1	
Not Active	CN1CCC(NC(=O)CSc2nnc(Cn3c(=O)sc4ccccc43)n2CCCc2ccccc2)CC1	
Not Active	Cc1nnc(SCC(=O)NC2CCCC2)n1CCc1ccccc1	
Not Active	Cl.NCc1ccc(-c2nnc(SCC(=O)NC3CCCC3)n2CCc2ccccc2)cc1	
	O=C(CSc1nnc(Cn2c(=O)sc3ccccc32)n1CCc1ccccc1)NC1CCCC1	EC50 ([1]; read-out: EC50): 53 µM
Not Active	NC(=O)CSc1nnc(Cn2c(=O)sc3ccccc32)n1CCc1ccccc1	
Not Active	O=C(CSc1nnc(Cn2c(=O)[nH]c3ccccc32)n1CCCc1ccccc1)NC1CCCC1	
	O=C(CSc1nnc(Cn2c(=O)sc3ccccc32)n1CCCc1ccccc1)NC1CCCCC1	EC50 ([1]; read-out: EC50): 8 µM; Activity [6]: 40%; Activity (CAPAN-1 [7]): inactive; Activity (BXPC-3 [8]): Active; Activity (CAPAN-1 [9]): inactive; Activity (BXPC-3 [10]): Dose-dependent effect; Activity (BXPC-3 [11]): Active; CI (BXPC-3 [12]): 0.76; Activity (BXPC-3 [13]): >70%; Activity (BXPC-3 [14]): inactive; Activity (BXPC-3 [15]): inactive; Activity (BXPC-3 [16]): inactive; Activity (BXPC-3 [17]): inactive
Not Active	O=C(CSc1nnc(Cn2c(=O)sc3ccccc32)n1CCc1ccccc1)N1CCCC1	

EC50 [1]	Compound	other results
Not Active	O=C(CSc1nnc(Cn2c(=O)sc3ccccc32)n1CCCc1ccccc1)N1CCCCC1	
Not Active	O=C(CSc1nnc(Cn2c(=O)sc3ccc(O)cc32)n1CCc1ccccc1)NC1CCCC1	
Not Active	O=C(CSc1nnc(Cn2c(=O)sc3ccccc32)n1CCc1ccccc1)NCc1ccccc1	
Not Active	O=C(CSc1nnc(Cn2c(=O)sc3ccccc32)n1CCc1ccccc1)NC1CC1	
Not Active	O=C(CSc1nnc(Cn2c(=O)sc3ccccc32)n1CCCc1ccccn1)NC1CCCC1	
Not Active	O=C(CSc1nncn1CCc1ccccc1)NC1CCCC1	
Not Active	Cc1ccc(C#N)c(=O)n1Cc1nnc(SCC(=O)NC2CCCC2)n1CCCc1ccccc1	
Not Active	O=C(CSc1nnc(CNc2ccccc2)n1CCc1ccccc1)NC1CCCC1	
Not Active	Cc1cccc(CCn2c(Cn3c(=O)sc4ccccc43)nnc2SCC(=O)NC2CCCC2)c1	
Not Active	O=C(CSc1nnc(Cn2c(=O)sc3ccccc32)n1CCc1ccccc1O)NC1CCCC1	
Not Active	O=C(CSc1nnc(Cn2c(=O)sc3ccccc32)n1CCCc1ccccc1)Nc1ccccc1	
Not Active	O=C(CSc1nnc(Cn2ccsc2=O)n1CCCc1ccccc1)NC1CCCC1	
	Cc1ccccc1CCn1c(Cn2c(=O)sc3ccccc32)nnc1SCC(=O)NC1CCCC1	EC50 ([1]; read-out: EC50): 100 µM
	O=C(CSc1nnc(Cn2c(=O)sc3ccccc32)n1CCCc1ccccc1)NC1CCCC1	EC50 ([1]; read-out: EC50): 25 µM; Activity [18]: inactive
Not Active	Cl.Nc1cccn(Cc2nnc(SCC(=O)NC3CCCC3)n2CCCc2ccccc2)c1=O	
Not Active	O=C(CSc1nnc(Cn2c(=O)sc3ccccc32)n1CCc1ccccc1)NCc1ccc(F)cc1	
Not Active	O=C(CSc1nnc(Cn2c(=O)sc3ccccc32)n1CCc1cccc(F)c1)NC1CCCC1	
Not Active	O=C(CSc1nnc(Cn2c(=O)sc3ccccc32)n1CCCc1ccccc1)C1CCCC1	
	O=C(CSc1nnc(Cn2c(=O)sc3ccccc32)n1CCCc1ccccc1)NC1CCC1	EC50 ([1]; read-out: EC50): 42 µM; solubility [19]: Insoluble
Not Active	O=C(CSc1nnc(Cn2c(=O)sc3ccccc32)n1CCc1ccc(F)cc1)NC1CCCC1	
